Reference: the supplement of paper PMC5579334

Legend:
ST8814 [1] = experiment: relative IC50 (inflection point of fitted dose-response curve, CellTox-Green cytotoxicity, 72 h; top asymptote may be below 50%); higher = less potent
Outline: (§1)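 For 72 h at 37 °C, MPNST cell lines and primary human Schwann cells were exposed in 384-well plates to five 10-fold compound dilutions. CellTox-Green, added before seeding at a final 1:1000 dilution, gave fluorescence from DNA released by disrupted cells. Signals were scaled to vehicle and positive-control wells, cultures failing plate quality control were left out, and four-parameter logistic fits were applied. Relative IC50 and drug sensitivity score were derived from the fits, with IC50 censored at the top concentration.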

HS-PSS [2] = experiment: as above
Outline: as §1

HSC1 [3] = experiment: as above
Outline: as §1

HSC2 [4] = experiment: as above
Outline: as §1

STS26T [5] = experiment: as above
Outline: as §1

S1507-2 [6] = experiment: as above
Outline: as §1

YST-1 = experiment: relative IC50 (inflection point of fitted dose-response curve, CellTiter-Glo viability, 72 h; top asymptote may be below 50% inhibition); higher = less potent
Outline: (§2)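 After seeding 750–1000 cells per well of MPNST cell lines or primary human Schwann cells into 384-well plates preprinted with each compound at five concentrations in 10-fold steps, plates were kept 72 h at 37 °C, 5% CO2. Viability was read as CellTiter-Glo ATP luminescence relative to vehicle and positive-control wells, with duplicates averaged where present. The data were fitted with four-parameter logistic models. Drug sensitivity score and relative IC50, censored at the top concentration, derive from the fits, and percent inhibition refers to the top concentration.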

ST8814 [7] = experiment: as above
Outline: as §2

HS-PSS [8] = experiment: as above
Outline: as §2

HSC1 [9] = experiment: as above
Outline: as §2

HSC2 [10] = experiment: as above
Outline: as §2

S462 = experiment: as above
Outline: as §2

HS-Sch-2 = experiment: as above
Outline: as §2

STS26T [11] = experiment: as above
Outline: as §2

S1507-2 [12] = experiment: as above
Outline: as §2

| SMILES | relative IC50 (ST8814 [1]) | relative IC50 (HS-PSS [2]) | relative IC50 (HSC1 [3]) | relative IC50 (HSC2 [4]) | relative IC50 (STS26T [5]) | relative IC50 (S1507-2 [6]) | relative IC50 (YST-1) | relative IC50 (ST8814 [7]) | relative IC50 (HS-PSS [8]) | relative IC50 (HSC1 [9]) | relative IC50 (HSC2 [10]) | relative IC50 (S462) | relative IC50 (HS-Sch-2) | relative IC50 (STS26T [11]) | relative IC50 (S1507-2 [12]) |
| --- | --- | --- | --- | --- | --- | --- | --- | --- | --- | --- | --- | --- | --- | --- | --- |
| CC1(COc2ccc3c(c2)ncn3-c2ccc3cccc(N4CCC(N)CC4)c3n2)COC1 [Crenolanib] | 1980 nM | 3150 nM | 2930 nM | 3310 nM | 3240 nM | 1950 nM | 3310 nM | 1750 nM | 3640 nM | 2670 nM | 2430 nM | 3270 nM | 1250 nM | 2710 nM | 2280 nM |
| O=C(/C=C/c1cccnc1)NCCCCC1CCN(C(=O)c2ccccc2)CC1 [Daporinad] | > 1000 nM | > 1000 nM | > 1000 nM | > 1000 nM | 36.1 nM | > 1000 nM | 2.8 nM | 7.62 nM | 5.73 nM | 7.32 nM | 8.05 nM | 4.41 nM | 3.57 nM | 36.9 nM | 37.8 nM |
| CCCCCCCCc1ccc(CCC(N)(CO)CO)cc1 [Fingolimod] | 3430 nM | 3160 nM | 1950 nM | 2220 nM | 3340 nM | 1600 nM | 2940 nM | 2770 nM | 1890 nM | 2150 nM | 2340 nM | 3070 nM | 2480 nM | 2620 nM | 2030 nM |
| CCCc1cc(C)[nH]c(=O)c1CNC(=O)c1cc(-c2ccnc(N3CCN(C)CC3)c2)cc2c1cnn2C(C)C [GSK343] | 3100 nM | 3090 nM | > 10000 nM | > 10000 nM | 2660 nM | 2310 nM | 4350 nM | 3200 nM | 2970 nM | 1520 nM | 1810 nM | 3250 nM | 3810 nM | 3820 nM | 2690 nM |
| CC(C)c1cc(-c2n[nH]c(=O)n2-c2ccc3c(ccn3C)c2)c(O)cc1O [Ganetespib] | 11.5 nM | 37.5 nM | 17.8 nM | 18.5 nM | 33 nM | 46.4 nM | 36.8 nM | 18.1 nM | 42.7 nM | 14.9 nM | 17.2 nM | 25 nM | 23.2 nM | 24.4 nM | 42.4 nM |
| Nc1ccn([C@@H]2O[C@H](CO)[C@@H](O)C2(F)F)c(=O)n1 [Gemcitabine] | 3.86 nM | 50.4 nM | 8.57 nM | 5.47 nM | 1.22 nM | 2.65 nM | 8.34 nM | 4.13 nM | 19.9 nM | 2.2 nM | 2 nM | 0.481 nM | 2.09 nM | 1.59 nM | 0.876 nM |
| CC(=O)[C@]1(O)Cc2c(O)c3c(c(O)c2[C@@H](O[C@H]2C[C@H](N)[C@H](O)[C@H](C)O2)C1)C(=O)c1ccccc1C3=O [Idarubicin] | 27 nM | 162 nM | 107 nM | 204 nM | 10.8 nM | 54.1 nM | 8.54 nM | 24.9 nM | 103 nM | 19.7 nM | 22.6 nM | 9.47 nM | 39.7 nM | 14.4 nM | 25.6 nM |
| CCc1c2c(nc3ccc(OC(=O)N4CCC(N5CCCCC5)CC4)cc13)-c1cc3c(c(=O)n1C2)COC(=O)[C@]3(O)CC [Irinotecan] | 1940 nM | 2130 nM | 2660 nM | 2240 nM | 2360 nM | 3670 nM | 359 nM | 1210 nM | 2610 nM | 406 nM | 822 nM | 1310 nM | 1340 nM | 1790 nM | 1580 nM |
| C/C(=C\c1csc(C)n1)[C@@H]1C[C@@H]2O[C@]2(C)CCC[C@H](C)[C@H](O)[C@@H](C)C(=O)C(C)(C)[C@@H](O)CC(=O)N1 [Ixabepilone] | 341 nM | > 1000 nM | 283 nM | 354 nM | 316 nM | 370 nM | 361 nM | 363 nM | 392 nM | 115 nM | 248 nM | 335 nM | 313 nM | 350 nM | 332 nM |
| O=C(Cc1ccc(-c2ccc(OCCN3CCOCC3)cc2)cn1)NCc1ccccc1 [KX2-391] | 33.8 nM | > 10000 nM | 112 nM | 139 nM | 23.6 nM | 30.2 nM | 49.1 nM | 36.4 nM | 163 nM | 52.3 nM | 73 nM | 34.3 nM | 30.5 nM | 29.4 nM | 46.7 nM |
| c1ccc([C@H]2CN3CCSC3=N2)cc1 [Levamisole] | > 10000 nM | > 10000 nM | > 10000 nM | > 10000 nM | > 10000 nM | > 10000 nM | > 10000 nM | > 10000 nM | > 10000 nM | > 10000 nM | > 10000 nM | > 10000 nM | > 10000 nM | > 10000 nM | > 10000 nM |
| O=NN(CCCl)C(=O)NC1CCCCC1 [Lomustine] | > 10000 nM | > 10000 nM | > 10000 nM | > 10000 nM | > 10000 nM | > 10000 nM | > 10000 nM | > 10000 nM | > 10000 nM | > 10000 nM | > 10000 nM | > 10000 nM | > 10000 nM | > 10000 nM | > 10000 nM |
| CO[C@H]1[C@@H](N(C)C(=O)c2ccccc2)C[C@@H]2O[C@@]1(C)n1c3ccccc3c3c4c(c5c6ccccc6n2c5c31)C(=O)NC4 [Midostaurin] | 274 nM | > 10000 nM | 901 nM | 243 nM | 323 nM | 395 nM | 163 nM | 443 nM | 465 nM | 112 nM | 155 nM | 580 nM | 409 nM | 436 nM | 282 nM |
| Nc1ccccc1NC(=O)c1ccc(CNc2nccc(-c3cccnc3)n2)cc1 [Mocetinostat] | 3100 nM | 2650 nM | 3390 nM | 2710 nM | 1720 nM | 3730 nM | 530 nM | 1610 nM | 2200 nM | 921 nM | 818 nM | 354 nM | 1400 nM | 1400 nM | 1840 nM |
| CCOc1cc2ncc(C#N)c(Nc3ccc(OCc4ccccn4)c(Cl)c3)c2cc1NC(=O)/C=C/CN(C)C [Neratinib] | > 1000 nM | > 1000 nM | > 1000 nM | > 1000 nM | > 1000 nM | > 1000 nM | 327 nM | 146 nM | 160 nM | 251 nM | 211 nM | 203 nM | 184 nM | 178 nM | 187 nM |
| COc1ccccc1S(=O)(=O)Nc1ccc2c(c1)CN(C)C(=O)N2 [PFI-1] | 2080 nM | > 10000 nM | > 10000 nM | > 10000 nM | > 10000 nM | 3630 nM | 1720 nM | 1530 nM | 3730 nM | 2820 nM | 2120 nM | 1710 nM | 1670 nM | 1470 nM | 1670 nM |
| CC(=O)O[C@H]1C(=O)[C@@]2(C)[C@H]([C@H](OC(=O)c3ccccc3)[C@]3(O)C[C@H](OC(=O)[C@H](O)[C@@H](NC(=O)c4ccccc4)c4ccccc4)C(C)=C1C3(C)C)[C@]1(OC(C)=O)CO[C@@H]1C[C@@H]2O [Paclitaxel] | 25 nM | > 1000 nM | 24.4 nM | 19 nM | 1.72 nM | 42.3 nM | 3.83 nM | 21.7 nM | 6.92 nM | 8.18 nM | 8.36 nM | 3.84 nM | 8.71 nM | 4.63 nM | 18.5 nM |
| Cc1[nH]c2ccccc2c1CCNCc1ccc(/C=C/C(=O)NO)cc1 [Panobinostat] | 36.6 nM | 89.1 nM | 125 nM | 122 nM | 64.9 nM | 30.9 nM | 9.07 nM | 15 nM | 54.8 nM | 20.8 nM | 37.2 nM | 14.2 nM | 25.4 nM | 35.4 nM | 11.2 nM |
| NS(=O)(=O)OC[C@@H]1C[C@@H](n2ccc3c(N[C@H]4CCc5ccccc54)ncnc32)C[C@@H]1O [Pevonedistat] | 201 nM | 222 nM | 737 nM | 1220 nM | 137 nM | 291 nM | 128 nM | 187 nM | 89.6 nM | 513 nM | 380 nM | 95.2 nM | 46.8 nM | 520 nM | 208 nM |
| O=C(CCBr)N1CCN(C(=O)CCBr)CC1 [Pipobroman] | > 10000 nM | > 10000 nM | > 10000 nM | > 10000 nM | > 10000 nM | > 10000 nM | > 10000 nM | > 10000 nM | > 10000 nM | > 10000 nM | > 10000 nM | > 10000 nM | > 10000 nM | > 10000 nM | > 10000 nM |
| Cn1cc(CNCC2CCN(c3ncc(C(=O)NO)cn3)CC2)c2ccccc21 [Quisinostat] | 56.1 nM | 131 nM | 208 nM | 226 nM | 105 nM | 44.8 nM | 8.58 nM | 16.6 nM | 42.8 nM | 34.5 nM | 56.8 nM | 20.4 nM | 45.5 nM | 43.4 nM | 18.3 nM |
| CNC(=O)c1cc(Oc2ccc(NC(=O)Nc3cc(C(C)(C)C)nn3-c3ccc4ncccc4c3)c(F)c2)ccn1 [Rebastinib] | > 1000 nM | > 1000 nM | > 1000 nM | > 1000 nM | > 1000 nM | > 1000 nM | > 1000 nM | > 1000 nM | > 1000 nM | > 1000 nM | > 1000 nM | > 1000 nM | > 1000 nM | > 1000 nM | > 1000 nM |
| CO[C@H]1C[C@@H]2CC[C@@H](C)[C@@](O)(O2)C(=O)C(=O)N2CCCC[C@H]2C(=O)O[C@H]([C@H](C)C[C@@H]2CC[C@@H](OP(C)(C)=O)[C@H](OC)C2)CC(=O)[C@H](C)/C=C(\C)[C@@H](O)[C@@H](OC)C(=O)[C@H](C)C[C@H](C)/C=C/C=C/C=C/1C [Ridaforolimus] | > 100 nM | > 100 nM | > 100 nM | > 100 nM | > 100 nM | > 100 nM | 1.02 nM | 0.496 nM | 1.87 nM | 0.221 nM | 0.319 nM | 1.26 nM | 2.85 nM | 0.663 nM | 1.55 nM |
